This note sets out measurements from patent US3962316A, “Carbamate” (priority 1972, dated 1976).

What is called mortality is the share of the test organisms that died. Read a low mortality as a weak lethal effect.

Common to all, as to assay type: in vivo
Experiment [1] has as its system oriental cockroaches (Blatta orientalis). In words: Contact with treated inner surfaces of 1 liter glass beakers, adult oriental cockroaches. As for the experimental part:
Adult oriental cockroaches (Blatta orientalis) are placed in 1 liter glass beakers whose inner surfaces have been treated with acetonic solutions of the active ingredients. The action is determined after 48 hours.

Experiment [2] relates to caterpillars of the cabbage moth (Plutella maculipennis). In words: Contact action and effect of ingested food on caterpillars of the cabbage moth (dipped cabbage leaves). Conditions: for Mortality (in words): 0.1% by weight of ingredient in aqueous emulsion. From the text: Contact action and effect of ingested food on caterpillars of the cabbage moth (Plutella maculipennis). Young cabbage leaves are dipped for 3 seconds into aqueous emulsions of the active ingredients. After they have dried they are put into Petri dishes and caterpillars of the cabbage moth are placed on them.

Experiment [3] deals with houseflies (Musca domestica). Conditions: after 4 hours. From the text:
1 mm^3 of an acetonic solution of the active ingredients is applied to the ventral abdomen of houseflies (Musca domestica) under slight CO2 narcosis.

`CNC(=O)Oc1ccccc1OC(CCl)OC` (stereo not drawn) [Active ingredient 1, o-(α-methoxy-β-chloro)-ethoxyphenyl-N-methylcarbamate] showed a mortality at 0.05 mg in experiment [1] (48 h) of 100%. Further, the mortality at 0.05 % in experiment [2] (Plutella) amounted to 100%. In addition, in experiment [3], the LD50 is reported as 0.41 γ/fly.
As to `CNC(=O)Oc1ccccc1OC(C)C` [III], the “Mortality (in words)” value in experiment [2] is on record as “ineffective”. Moreover, the LD50 in experiment [3] is listed as 1.5 γ/fly.
As to `CNC(=O)Oc1cccc(C)c1` [II], in experiment [1] (0.5 mg/breaker, after 48 hours), the mortality at 0.5 mg worked out at 100%. Further, the “Mortality (in words)” value in experiment [2] is given as “ineffective”. Besides, the “Effect on flies (LD50 column, in words)” value in experiment [3] (10.0 γ/fly) was “ineffective”.
Regarding `CNC(=O)Oc1cccc2ccccc12` [I], the mortality at 0.2 mg in experiment [1] (48 h) is 100%. Also, the mortality at 0.1 % in experiment [2] (Plutella) amounted to 100%.
For the compound `CCOC(CCl)Oc1ccccc1OC(=O)NC` (stereo not drawn) [compound 6], in experiment [2] (Plutella), the mortality at 0.02 % was determined as 100%.
For the compound “o-(α-2-chloroethoxy)-ethoxyphenyl-N-methylcarbamate [Example 2]”, the LD50 in experiment [3] is 0.3 γ/fly.
